From patent US7053088B2, “Vanilloid receptor ligands and their use in treatments” (Amgen Inc., priority 2002, dated 2006) come the findings set out here.

What is called melting point is the temperature, or range, at which the solid turns liquid. For the molecule `Nc1cc(C(F)(F)F)ccc1-c1cc(Nc2ccc3ncsc3c2)ncn1` [[6-(2-Amino-4-trifluoromethylphenyl)pyrimidin-4-yl]benzothiazol-6-ylamine], the melting point fell in the range of 203.1 to 203.2 °C.

Molecule `CC(C)(C)c1ccc(-c2cc(Nc3ccc4ncsc4c3)ncn2)cc1` [benzothiazol-6-yl-[6-(4-tert-butylphenyl)pyrimidin-4-yl]amine] showed a melting point of 237 °C. Consider `FC(F)(F)c1ccc(-c2cc(Nc3ccc4ncsc4c3)nnc2-c2ccccc2)cc1` [benzothiazol-6-yl-[6-phenyl-5-(4-trifluoromethylphenyl)pyridazin-3-yl]amine], for which the melting point amounted to 272 °C. Then `OCCOc1ccc(Nc2cc(-c3ccc(C(F)(F)F)cc3)ncn2)cn1` [2-{5-[6-(4-Trifluoromethylphenyl)pyrimidin-4-ylamino]pyridin-2-yloxy}ethanol], with 189.5 to 190.5 °C. With `CSc1cccc(Nc2cc(-c3ccc(C(F)(F)F)cc3)ncn2)c1` [(3-methylsulfanylphenyl)-[6-(4-trifluoromethylphenyl)pyrimidin-4-yl]amine], the melting point lay within 130 to 132 °C. Under `CC(C)(C)c1ccc(-c2cc(Nc3ccc4nn[nH]c4c3)ncn2)cc1` [(3H-benzotriazol-5-yl)-[6-(4-tert-butylphenyl)pyrimidin-4-yl]amine] stands 250 to 252 °C; under `OCc1cc2cccc(Nc3cc(-c4ccc(C(F)(F)F)cc4)ncn3)c2[nH]1` [{7-[6-(4-Trifluoromethylphenyl)pyrimidin-4-ylamino]-1H-indol-2-yl}methanol], 221 to 223 °C; under `FC(F)(F)c1ccc(-c2cc(Nc3ccc4ccc(Cl)nc4c3)ncn2)cc1` [(2-Chloroquinolin-7-yl)-[6-(4-trifluoromethylphenyl)pyrimidin-4-yl]amine], 233 °C. Then `FC(F)(F)c1ccc(-c2cc(Nc3ccc4cc[nH]c4c3)ncn2)cc1` [Example 42], with 231 to 232 °C. In the case of `CC(C)(C)c1ccc(-c2cc(Nc3ccccc3)ncn2)cc1` [[6-(4-tert-butylphenyl)pyrimidin-4-yl]phenylamine], the melting point was determined as 166 °C.
